Measurements published in ChEMBL document CHEMBL1154925 (Bioorg Med Chem Lett, 2010).
Calls of active or inactive are those of the source. No cut-off for these calls is given here.

Assays:
[1] = target: T1, Prostaglandin G/H synthase 1 (Ovis aries, UniProt P05979)
T1 sequence (P05979 whole entry): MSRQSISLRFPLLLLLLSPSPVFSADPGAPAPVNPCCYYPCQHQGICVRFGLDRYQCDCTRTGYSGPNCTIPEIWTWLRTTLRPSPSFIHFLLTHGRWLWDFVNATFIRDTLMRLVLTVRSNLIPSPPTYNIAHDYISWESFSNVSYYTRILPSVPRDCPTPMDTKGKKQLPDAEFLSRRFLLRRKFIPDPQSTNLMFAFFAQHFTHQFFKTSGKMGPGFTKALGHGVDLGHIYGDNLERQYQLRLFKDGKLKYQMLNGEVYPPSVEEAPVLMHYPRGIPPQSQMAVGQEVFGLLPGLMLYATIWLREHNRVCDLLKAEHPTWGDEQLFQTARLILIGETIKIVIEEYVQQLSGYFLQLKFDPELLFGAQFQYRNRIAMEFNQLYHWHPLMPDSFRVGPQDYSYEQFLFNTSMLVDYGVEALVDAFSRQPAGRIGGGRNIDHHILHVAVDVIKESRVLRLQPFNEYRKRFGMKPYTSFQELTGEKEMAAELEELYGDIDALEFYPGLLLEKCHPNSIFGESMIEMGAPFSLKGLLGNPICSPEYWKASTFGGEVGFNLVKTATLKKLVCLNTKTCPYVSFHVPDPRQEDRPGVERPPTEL

[2] = target: T2, Prostaglandin G/H synthase 2 (Mus musculus, UniProt Q05769)
T2 sequence (Q05769 whole entry): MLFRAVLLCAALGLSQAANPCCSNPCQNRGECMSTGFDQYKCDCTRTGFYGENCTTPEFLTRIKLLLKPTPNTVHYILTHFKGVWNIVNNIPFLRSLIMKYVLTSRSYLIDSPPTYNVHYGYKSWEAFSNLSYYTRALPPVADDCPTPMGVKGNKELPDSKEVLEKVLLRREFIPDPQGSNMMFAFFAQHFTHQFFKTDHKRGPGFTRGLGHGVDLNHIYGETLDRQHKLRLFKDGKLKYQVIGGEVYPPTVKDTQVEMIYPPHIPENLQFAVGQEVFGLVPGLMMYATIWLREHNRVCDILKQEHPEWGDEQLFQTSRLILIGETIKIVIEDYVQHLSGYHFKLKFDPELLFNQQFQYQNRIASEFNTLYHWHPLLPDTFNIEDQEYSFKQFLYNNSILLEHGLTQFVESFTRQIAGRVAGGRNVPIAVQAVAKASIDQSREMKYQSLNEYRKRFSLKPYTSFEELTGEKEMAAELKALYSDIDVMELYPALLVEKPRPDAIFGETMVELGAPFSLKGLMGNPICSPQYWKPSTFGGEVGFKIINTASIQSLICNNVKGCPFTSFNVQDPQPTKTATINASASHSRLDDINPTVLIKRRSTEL

Raji = experiment: cells; details: Homo sapiens, 72 h
[3] = Half life in stimulated gastric fluid of pH 1.0; details: simulated gastric fluid
HEK293 = experiment: cells; details: Homo sapiens, HEK293, 72 h
[4] = system: Trypanosoma brucei brucei; details: 100 nM
[5] = system: Trypanosoma brucei brucei; details: 1 uM
[6] = system: Trypanosoma brucei brucei; details: 1 uM; remark: listed apart in the source
[7] = target: T3, Prostaglandin G/H synthase 2 (Homo sapiens) (UniProt P35354); experiment: Inhibition of human COX2
T3 sequence (whole entry): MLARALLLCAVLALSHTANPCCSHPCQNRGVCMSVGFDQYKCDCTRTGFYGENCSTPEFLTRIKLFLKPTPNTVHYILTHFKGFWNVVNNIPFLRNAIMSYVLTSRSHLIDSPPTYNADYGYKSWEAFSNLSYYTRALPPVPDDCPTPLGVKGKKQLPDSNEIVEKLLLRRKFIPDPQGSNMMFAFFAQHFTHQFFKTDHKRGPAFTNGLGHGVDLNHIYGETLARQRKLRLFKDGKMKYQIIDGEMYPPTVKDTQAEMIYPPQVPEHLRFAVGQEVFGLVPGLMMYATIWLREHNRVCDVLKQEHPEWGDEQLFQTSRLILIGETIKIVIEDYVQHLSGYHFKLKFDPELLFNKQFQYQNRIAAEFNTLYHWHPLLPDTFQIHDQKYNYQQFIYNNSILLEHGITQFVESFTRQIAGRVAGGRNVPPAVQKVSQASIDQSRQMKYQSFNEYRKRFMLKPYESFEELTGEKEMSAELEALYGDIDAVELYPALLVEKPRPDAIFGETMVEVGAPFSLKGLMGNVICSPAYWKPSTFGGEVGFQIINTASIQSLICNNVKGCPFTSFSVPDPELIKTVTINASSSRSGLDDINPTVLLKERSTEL

[8] = target: Prostaglandin G/H synthase 1 (Homo sapiens) (UniProt P23219); experiment: Inhibition of human COX1
[9] = system: Trypanosoma brucei brucei; details: 100 nM; remark: listed apart in the source
[10] = system: Trypanosoma brucei brucei; experiment: microbe, parasite or virus in culture; details: 48 h

Prostaglandin G/H synthase 1 (Homo sapiens), sequence (P23219 whole entry): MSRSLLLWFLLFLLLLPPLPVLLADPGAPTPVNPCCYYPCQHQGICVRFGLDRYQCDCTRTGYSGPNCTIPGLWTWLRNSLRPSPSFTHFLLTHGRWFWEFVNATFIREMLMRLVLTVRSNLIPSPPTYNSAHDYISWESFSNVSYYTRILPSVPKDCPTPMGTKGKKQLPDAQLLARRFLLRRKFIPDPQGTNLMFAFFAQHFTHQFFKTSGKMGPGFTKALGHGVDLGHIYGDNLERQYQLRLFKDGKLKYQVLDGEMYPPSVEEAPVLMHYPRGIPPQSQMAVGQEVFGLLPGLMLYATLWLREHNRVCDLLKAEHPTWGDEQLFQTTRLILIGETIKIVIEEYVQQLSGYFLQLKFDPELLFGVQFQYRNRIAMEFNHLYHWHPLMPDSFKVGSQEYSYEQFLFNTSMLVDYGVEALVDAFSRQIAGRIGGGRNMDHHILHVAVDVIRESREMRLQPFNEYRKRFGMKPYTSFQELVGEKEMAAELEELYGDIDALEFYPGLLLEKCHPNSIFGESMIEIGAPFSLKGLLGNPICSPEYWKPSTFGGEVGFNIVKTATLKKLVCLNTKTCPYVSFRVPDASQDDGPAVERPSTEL

Row | SMILES | IC50 [1] | IC50 [2] | IC50 (Raji) | half-life [3] | IC50 (HEK293) | inhibition [4] | inhibition [5] | inhibition [6] | inhibition [7] | inhibition [8] | inhibition [9] | IC50 [10]
1 | COc1cc([C@H]2c3cc4c(cc3[C@@H](OC(=O)CCC(=O)NCc3ccc(NS(=O)(=O)c5cccc6c(N(C)C)cccc56)cc3)[C@@H]3COC(=O)[C@@H]23)OCO4)cc(OC)c1OC | > 4000 nM | > 4000 nM | 37 nM | > 24 h |  |  |  |  |  |  |  | 
2 | COc1cc([C@H]2c3cc4c(cc3[C@@H](OC(=O)CCC(=O)NC[C@H](C)c3ccccc3)[C@@H]3COC(=O)[C@@H]23)OCO4)cc(OC)c1OC | > 4000 nM | > 4000 nM | 540 nM | > 24 h | 360 nM |  |  |  |  |  |  | 
3 | CO[C@@H](/C(C)=C/C=C/C(C)=C/c1coc(C)n1)[C@@H](C)[C@@H]1C[C@H](O)[C@@]2(C)O[C@@H]2/C=C/[C@@H](C)[C@H]2C[C@H](CC(=O)O2)C[C@@H]2O[C@H]2C(=O)O1 [RHIZOXIN] |  |  | 340 nM | > 24 h | 350 nM | Active | Active |  |  |  |  | 
4 | COc1ccc2c(c1)c(CC(=O)NCCCCNC(=O)CCC(=O)O[C@@H]1c3cc4c(cc3[C@H](c3cc(OC)c(OC)c(OC)c3)[C@@H]3C(=O)OC[C@H]31)OCO4)c(C)n2C(=O)c1ccc(Cl)cc1 |  | 295 nM | 120 nM | > 24 h | 160 nM |  |  | Active | inactive | inactive | Active | 
5 | COc1ccc2c(c1)c(CCNC(=O)CCC(=O)O[C@@H]1c3cc4c(cc3[C@H](c3cc(OC)c(OC)c(OC)c3)[C@@H]3C(=O)OC[C@H]31)OCO4)c(C)n2Cc1ccc(Br)cc1 | > 4000 nM | > 4000 nM | 420 nM | > 24 h | 240 nM |  |  |  |  |  |  | 
6 | COc1ccc(CCNC(=O)CCC(=O)O[C@@H]2c3cc4c(cc3[C@H](c3cc(OC)c(OC)c(OC)c3)[C@@H]3C(=O)OC[C@H]32)OCO4)cc1 | > 4000 nM | > 4000 nM | 130 nM | > 24 h | 79 nM |  |  |  |  |  |  | 
7 | COc1cc([C@@H]2c3cc4c(cc3[C@H](O)[C@H]3COC(=O)[C@H]23)OCO4)cc(OC)c1OC [PODOFILOX] | > 4000 nM | > 4000 nM | 18 nM | > 24 h | 17 nM |  |  |  |  |  |  | 
8 | COc1ccc2c(c1)c(CC(=O)NCCCCCNC(=O)CCC(=O)O[C@@H]1c3cc4c(cc3[C@H](c3cc(OC)c(OC)c(OC)c3)[C@@H]3C(=O)OC[C@H]31)OCO4)c(C)n2C(=O)c1ccc(Cl)cc1 | > 4000 nM |  | 280 nM | > 24 h |  |  |  |  | inactive | inactive |  | 
9 | COc1cc([C@H]2c3cc4c(cc3[C@@H](OC(=O)CCC(=O)NCCCCNC(=O)[C@@H](C)c3ccc(CC(C)C)cc3)[C@@H]3COC(=O)[C@@H]23)OCO4)cc(OC)c1OC | > 4000 nM | > 4000 nM | 170 nM | > 24 h | 160 nM |  |  |  |  |  |  | 
10 | COc1ccc2c(c1)c(CC(=O)NCCOC(=O)CCC(=O)O[C@@H]1c3cc4c(cc3[C@H](c3cc(OC)c(OC)c(OC)c3)[C@@H]3C(=O)OC[C@H]31)OCO4)c(C)n2C(=O)c1ccc(Cl)cc1 |  |  | 1300 nM | > 24 h | 860 nM |  |  |  | inactive | inactive |  | 
11 | COc1cc([C@H]2c3cc4c(cc3[C@@H](OC(=O)CCC(=O)NCCCCNC(=O)[C@@H](C)c3ccc(-c5ccccc5)c(F)c3)[C@@H]3COC(=O)[C@@H]23)OCO4)cc(OC)c1OC | > 4000 nM | > 4000 nM | 180 nM | > 24 h | 180 nM |  |  |  |  |  |  | 
12 | COc1cc([C@H]2c3cc4c(cc3[C@@H](OC(=O)CCC(=O)NCCCCNC(=O)[C@@H](C)c3cccc(C(=O)c5ccccc5)c3)[C@@H]3COC(=O)[C@@H]23)OCO4)cc(OC)c1OC | > 4000 nM | > 4000 nM | > 50000 nM | > 24 h | > 50000 nM |  |  |  |  |  |  | 
13 | COc1ccc2c(c1)c(CC(=O)O)c(C)n2C(=O)c1ccc(Cl)cc1 [INDOMETHACIN] |  |  | > 50000 nM | > 24 h | > 50000 nM |  |  |  |  |  |  | > 50000 nM
14 | COc1cc([C@@H]2c3cc4c(cc3[C@H](OC(=O)CCC(=O)O)[C@H]3COC(=O)[C@H]23)OCO4)cc(OC)c1OC [SUCCINYLPODOPHYLLOTOXIN] | > 4000 nM | > 4000 nM | 100 nM | > 24 h | 76 nM |  |  |  |  |  |  | 
15 | COc1ccc2c(c1)c(CC(=O)N1CCN(C(=O)CCC(=O)O[C@@H]3c4cc5c(cc4[C@H](c4cc(OC)c(OC)c(OC)c4)[C@@H]4C(=O)OC[C@H]43)OCO5)CC1)c(C)n2C(=O)c1ccc(Cl)cc1 |  |  | 510 nM | > 24 h | 520 nM |  |  |  | inactive | inactive |  | 
16 | COc1ccc2cc([C@@H](C)C(=O)NCCCCNC(=O)CCC(=O)O[C@@H]3c4cc5c(cc4[C@H](c4cc(OC)c(OC)c(OC)c4)[C@@H]4C(=O)OC[C@H]43)OCO5)ccc2c1 | > 4000 nM | > 4000 nM | 430 nM | > 24 h | 330 nM |  |  |  |  |  |  | 
